Results published in patent US11578055B2, “Triazacyclododecansulfonamide (“TCD”)-based protein secretion inhibitors” (KEZAR LIFE SCIENCES, priority 2018, dated 2023).
Read-outs that look alike come from different tables or passages of the source.

Assays:
[1] = In Vitro Microsome Stability Assay (mouse); format: in vitro ADME
Outline: (§1)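 Test article, added from a 0.25 mM DMSO stock, was incubated with liver microsomes (20 mg/mL stock) in 0.1 M potassium phosphate at 37° C, with the reaction started by NADPH. Samples were quenched with acetonitrile containing internal standard at 0 and 30 min and analysed by LC-MS/MS. Values are % remaining at 30 min versus 0 min, using IS-normalised AUC ratios.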

[2] = system: PD1 signal sequence plus 10 amino acids fused to Gaussia Luciferase (PD1-ss+10aa/Gaussia Luciferase); test: Dox Induced PD1-ss-Gluc Assay; format: cell-based; conditions: 24 hr, read-out: 24 hr Dox Inducible PD1ssGluc 293FRT/TO: Mean IC50
Outline: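 Compound dilutions in DMSO/media containing doxycycline were applied to a stable, inducible 293 T-REx line carrying the luciferase fusion, then incubated at 37 °C, 5% CO2. Where stereochemistry is not drawn, values relate to isomer mixtures.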

[3] = system: HER3 signal sequence plus 4 amino acids fused to Gaussia Luciferase (HER3-ss+4aa/Gaussia Luciferase); test: Dox Induced HER3-ss-Gluc Assay; format: cell-based; conditions: 24 hr, doxycycline induced, Flp-In 293 T-REx cells; read-out: 24 hr Dox Inducible Her3(ss + 4) Gluc 293FRT/TO: Mean 1050
Excerpt: FIp-In 293 T-REx™ cells were transfected with pcDNA™5/FRT/TO plasmid inserted with cDNA encoding Gaussia Luciferase fused to the 3′ end of cDNA encoding HER3 signal sequence plus 4 amino acids (N-[…]-C) (SEQ ID NO: 2). Transfected cells were selected for resistance to the selectable markers Hygromycin and Blasticidin to create a stable cell line that contained the HER3-ss+4aa/Gaussia Luciferase cDNA insert whose expression was regulated under the T-REx™ system. The day before assay, cells were trypsinized and plated in 384-well tissue culture plates. The next day, compound dilutions in DMSO/media containing doxycycline were added to the wells and incubated at 37° C., 5% CO2.
For chemical structures that include one or more stereoisomers, but are illustrated without indicating stereochemistry, the assay data refers to a mixture of stereoisomers.

[4] = system: multiple myeloma cell line NCl-H929; test: H929 Cell Viability Assay; format: cell-based, human; conditions: Homo sapiens, NCI-H929, 48 h
Outline: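 Viability was determined by CellTiter-Glo luminescence after a 48 h, 37 °C exposure of NCI-H929 cells to serial compound dilutions in medium containing 10% FBS. Where stereochemistry is not shown, values refer to a mix of stereoisomers.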

[5] = system: multiple myeloma cell line U266B1; test: U266 Cell Viability Assay; format: cell-based, human; conditions: Homo sapiens, U-266, 48 hr
Outline: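 Viability was measured by CellTiter-Glo luminescence after 48 h compound exposure at 37° C, 5% CO2. The cells were U266B1 multiple myeloma cells grown in RPMI 1640 plus 10% FBS. Where stereochemistry is not shown, values apply to the stereoisomer mixture.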

[6] = In Vitro Microsome Stability Assay (rat); format: in vitro ADME
Outline: as §1

[7] = system: full length IL-2 (amino acids 1-153) fused to Gaussia Luciferase; test: Dox Induced IL2-FL-Gluc Assay; format: cell-based; conditions: 24 hr, read-out: 24 hr Dox Inducible IL2FLGluc 293FRT/TO: Mean IC50
Outline: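 Compounds in DMSO/media with doxycycline were added to cells plated the previous day and incubated at 37° C, 5% CO2. Cells: stable Flp-In 293 T-REx line, Dox-regulated expression of IL-2 (aa 1-153) fused at its C-terminus to Gaussia luciferase.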

[8] = In Vitro Microsome Stability Assay (human); format: in vitro ADME
Outline: as §1

[9] = In Vitro Microsome Stability Assay (monkey); format: in vitro ADME
Outline: as §1

[10] = system: full length TNFα (amino acids 1-233) fused to Gaussia Luciferase; test: Dox Induced TNFα-FL-Gluc Assay; format: cell-based; conditions: 24 hr, read-out: 24 hr Dox Inducible TNFaFLGluc 293FRT/TO: Mean IC50
Outline: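 Compounds diluted in DMSO/medium with doxycycline were incubated at 37° C, 5% CO2 with 293 T-REx cells stably carrying a Tet-regulated TNFα(1-233)-Gaussia luciferase construct. Data for structures drawn without stereochemistry refer to stereoisomer mixtures.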

[11] = mouse liver microsomes, 30 min w/ NADPH
[12] = rat liver microsomes, 30 min w/ NADPH
[13] = human liver microsomes, 30 min w/ NADPH
[14] = monkey liver microsomes, 30 min w/ NADPH
[15] = H929, read-out: 48 hr H929 Viability Celltiter-Glo: Mean EC50
[16] = U266, read-out: 48 hr U266 Viability Celltiter-Glo: Mean EC50

Row | SMILES | Liver Microsome Stability-% Left after 30 min w/ NADPH (%) Mouse [1, 11] [%] | IC50 ([2]; Dox inducible, 293FRT/TO cells) [nM] | IC50 [3] [nM] | EC50 ([4]; H929, Celltiter-Glo) [nM] | EC50 ([5]; U266, Celltiter-Glo) [nM] | Liver Microsome Stability-% Left after 30 min w/ NADPH (%) Rat [6, 12] [%] | IC50 ([7]; Dox inducible, 293FRT/TO cells) [nM] | Liver Microsome Stability-% Left after 30 min w/ NADPH (%) Human [8, 13] [%] | Liver Microsome Stability-% Left after 30 min w/ NADPH (%) Monkey [9, 14] [%] | IC50 ([10]; Dox inducible, 293FRT/TO cells) [nM] | Liver Microsome Stability-% Left after 30 min w/ NADPH (%) Mouse ([1]; mouse, 30 min, NADPH) [%] | IC50 ([10]; 293FRT/TO) [nM] | IC50 ([2]; 293FRT/TO) [nM] | EC50 [4, 15] [nM] | EC50 [5, 16] [nM] | Liver Microsome Stability-% Left after 30 min w/ NADPH (%) Rat ([6]; rat, 30 min, NADPH) [%] | IC50 ([7]; 293FRT/TO) [nM] | Liver Microsome Stability-% Left after 30 min w/ NADPH (%) Human ([8]; human, 30 min, NADPH) [%] | Liver Microsome Stability-% Left after 30 min w/ NADPH (%) Monkey ([9]; monkey, 30 min, NADPH) [%]
1 | C[C@H]1CN(S(=O)(=O)c2ccc(N(C)C)cc2)CCCNCCCN(S(=O)(=O)N2CCc3cc(Cl)ccc3C2)C1 [A183, 4-{[(3S)-5-[(6-chloro-1,2,3,4-tetrahydroisoquinolin-2-yl)sulfonyl]-3-methyl-1,5,9-triazacyclododecan-1-yl]sulfonyl}-N,N-dimethylaniline] | 7.39 | 1440 | 2150 | 6120 | > 25000 | 3.17 | 2520 | 10.1 | 0.75 |  |  |  |  |  |  |  |  |  | 
2 | C[C@H]1CN(S(=O)(=O)c2ccc(N(C)C)cc2)CCCN(CC2CC(F)(F)C2)CCCN(S(=O)(=O)N2CCc3cc(Cl)ccc3C2)C1 [A169, 4-{[(3S)-5-[(6-chloro-1,2,3,4-tetrahydroisoquinolin-2-yl)sulfonyl]-9-[(3,3-difluorocyclobutyl)methyl]-3-methyl-1,5,9-triazacyclododecan-1-yl]sulfonyl}-N,N-dimethylaniline] | 22.5 | 81.5 |  | 3270 | > 25000 | 13.1 | 192 | 34.7 | 4.23 | 1050 |  |  |  |  |  |  |  |  | 
3 | COc1cc(F)cc(N2CCN(S(=O)(=O)N3CCCN(CC4CCCCC4)CCCN(S(=O)(=O)c4ccc(N(C)C)cc4)C[C@H](C)C3)C[C@H]2C)c1 [A196] |  | 31 | 78.2 | > 25000 | > 25000 |  | 105 |  |  | 1470 |  |  |  |  |  |  |  |  | 
4 | C[C@H]1CN(S(=O)(=O)c2ccc(N(C)C)cc2)CCCN(CC2CCCCC2)CCCN(S(=O)(=O)N2CCN(c3ccccc3F)CC2)C1 [A94, 4-{[(3S)-9-(cyclohexylmethyl)-5-{[4-(2-fluorophenyl)piperazin-1-yl]sulfonyl}-3-methyl-1,5,9-triazacyclododecan-1-yl]sulfonyl}-N,N-dimethylaniline] |  |  |  |  |  |  |  |  |  |  | 45.7 | 550 | 36.4 | 800 | > 25000 | 45.5 | 78.3 | 42.1 | 30.3
5 | Cc1ccccc1N1CCN(S(=O)(=O)N2CCCN(CC3CCCCC3)CCCN(S(=O)(=O)c3ccc(N(C)C)cc3)C[C@H](C)C2)CC1 [A97, 4-{[(3S)-9-(cyclohexylmethyl)-3-methyl-5-{[4-(2-methylphenyl)piperazin-1-yl]sulfonyl}-1,5,9-triazacyclododecan-1-yl]sulfonyl}-N,N-dimethylaniline] |  |  |  |  |  |  |  |  |  |  | 77.7 | 566 | 41.8 | 726 | > 25000 | 71.4 | 87 | 71.1 | 66.1
6 | C[C@H]1CN(S(=O)(=O)c2ccc(N(C)C)cc2)CCCN(CC2CCCCC2)CCCN(S(=O)(=O)N2CCC(Oc3ccccc3)CC2)C1 [A92, 4-{[(3S)-9-(cyclohexylmethyl)-3-methyl-5-[(4-phenoxypiperidin-1-yl)sulfonyl]-1,5,9-triazacyclododecan-1-yl]sulfonyl}-N,N-dimethylaniline] |  |  |  |  |  |  |  |  |  |  | 40.8 | > 25000 | 304 | > 25000 | > 25000 | 51.8 | 519 | 44.3 | 40.4
7 | C[C@H]1CN(S(=O)(=O)c2ccc(N(C)C)cc2)CCCN(CC(F)(F)F)CCCN(S(=O)(=O)N2CCc3cc(Cl)ccc3C2)C1 [A167, 4-{[(3S)-5-[(6-chloro-1,2,3,4-tetrahydroisoquinolin-2-yl)sulfonyl]-3-methyl-9-(2,2,2-trifluoroethyl)-1,5,9-triazacyclododecan-1-yl]sulfonyl}-N,N-dimethylaniline] | 18.3 | 201 |  | 6500 | > 25000 | 9.19 | 412 | 5.68 | 73 | 2660 |  |  |  |  |  |  |  |  | 
8 | C[C@H]1CN(S(=O)(=O)c2ccc(N(C)C)cc2)CCCN(CC2CCC2)CCCN(S(=O)(=O)N2CCc3cc(Cl)ccc3C2)C1 [A108, 4-{[(3S)-5-[(6-chloro-1,2,3,4-tetrahydroisoquinolin-2-yl)sulfonyl]-9-(cyclobutylmethyl)-3-methyl-1,5,9-triazacyclododecan-1-yl]sulfonyl}-N,N-dimethylaniline] | 0.62 | 29.6 |  | 421 | > 25000 | 2.05 | 68.3 | 1.06 | 0.88 | 546 |  |  |  |  |  |  |  |  | 
